Laboratory results: publication PMC7502707, “Characterization and validation of a preventative therapy for hypertrophic cardiomyopathy in a murine model of the disease” (Proceedings of the National Academy of Sciences of the …, 2020)
Marks after values point to notes of the source that are not given here.

Columns and labels:
[1] = tested on: myocytes isolated from wt and cTnI-G203S mice; assay: MTT assay (formation of formazan) in myocytes isolated from treated mice; type: in vivo, mouse; settings: myocytes from precardiomyopathic cTnI-G203S mice treated 10 μM i.p. 3×/wk/5 wk from 20 wk
Method: The rate of reduction of MTT (Sigma-Aldrich) to formazan by the mitochondrial electron transport chain was measured in intact mouse cardiac myocytes, as previously described ([22], [25]). Each n represents number of replicates for each treatment group from cardiac myocytes isolated from a total of six wt [AID(S)-TAT], four cTnI-G203S [AID(S)-TAT], and three (AID-TAT) mice. Detailed methods are provided in SI Appendix. […]
The rate of reduction of 3-(4,5-Dimethyl-2-thiazolyl)-2,5-diphenyl-2H-tetrazolium bromide (MTT, Sigma-Aldrich, St. Louis, Missouri) to formazan by the mitochondrial electron transport chain was measured in intact mouse cardiac myocytes as previously described (1, 9). This reaction is dependent upon the presence of reduced nicotinamide adenine dinucleotide (NADH) and reduced nicotinamide adenine dinucleotide phosphate (NADPH), and intact mitochondrial electron transport (10). Cardiac myocytes were treated with relevant drugs in 96 well plates. MTT was added to each well to a final concentration of 0.5 mg/ml and the rate of the increase in absorbance immediately measured using a spectrophotometer at 37°C (PowerWave XS, 570 nm, reference wavelength of 620 nm). The rate of the increase in absorbance in response to treatments was expressed as a percentage of the rate of the increase prior to the addition of treatments. Each n represents number of replicates for each treatment group from cardiac myocytes isolated from a total of 6 wt (AID[S]- TAT), 4 cTnI-G203S (AID[S]-TAT), and 3 (AID-TAT) mice.
Immunoblot of ICa-L protein

cTnI-G203S mice = assay: Echocardiography of treated cTnI-G203S mice; type: in vivo, mouse; settings: for FS / HW:BW / IVSD / IVSS / LVDPW / LVEDD / LVESD / LVSPW: 10 μM i.p. 3×/wk/5 wk, mean
Method: Male mice expressing the human cTnI gene encoding the human disease-causing mutation cTnI-G203S were used for all studies. The mice develop hallmark features of HCM by 21 wk ([7], [13]). Male mice expressing the normal human cTnI gene were used as controls (wt). Ten-week-old mice were used for in vitro studies. For in vivo studies, 20- or 30-wk-old cTnI-G203S mice were treated with 10 μM AID-TAT or AID[S]-TAT via intraperitoneal injection, 3×/wk/5 wk. In vivo dose of AID-TAT or AID[S]-TAT (10 μM) was calculated based on blood volume, equating to ∼2 mg/kg total BW. Male animal models were used to eliminate potential differences in responses due to sex. Experiments were performed in a total of 21 wt (AID[S]-TAT), 6 wt (AID-TAT), 15 cTnI-G203S (AID[S]-TAT), and 26 cTnI-G203S (AID-TAT) mice. All animals were randomly assigned to treatment groups. All animal studies were approved by the Animal Ethics Committee of The University of Western Australia in accordance with the 2013 Australian Code for the Care and Use of Animals for Scientific Purposes ([58]).
Echocardiographic measurement of left ventricular function were performed on mice under light methoxyflurane anesthesia using an i13L probe on a Vivid 7 Dimension ultrasound system (GE Healthcare), as previously described ([13], [29], [30]). Each n represents the average of quantitative measurements from wt or cTnI-G203S mice for each treatment group. Detailed methods are provided in SI Appendix.
Echocardiographic measurement of left ventricular function were performed on mice under light methoxyflurane anesthesia using an i13L probe on a Vivid 7 Dimension ultrasound system (GE Healthcare, Little Chalfont, United Kingdom) as previously described (4, 7). Echocardiographic measurements were taken on M-mode in triplicate from separate mice at a sweep speed of 200 mm/s. Each n represents the average of quantitative measurements from wt or cTnI-G203S mice for each treatment group. Measurements of left ventricular end diastolic diameter (LVEDD), left ventricular end systolic diameter (LVESD), fractional shortening (FS), left ventricular posterior wall in diastole (LVDPW), left ventricular posterior wall in systole (LVSPW), interventricular septum in diastole (IVSD), interventricular septum in systole (IVSS) and end diastolic diameter (EDD) were made. FS was calculated by the formula [(LVEDD-LVESD)/EDD] x 100. […]
(BioAssay Systems, Hayward CA). All assays were performed as per manufacturer’s instructions, using a spectrophotometer (PowerWave XS).

[2] = Post-HCM treatment (from 30 wk), 35-wk-old cTnI-G203S mice, n = 5
[3] = Pre-HCM treatment (from 20 wk), 25-wk-old cTnI-G203S mice, n = 7 AID(S)-TAT, n = 6 AID-TAT

**Q.** For QQLEEDLKGYLDWITQAE [AID-TAT], which “increase in metabolic activity (formazan from MTT) following BayK(−)” value [1] is on record?
**A.** reduced this response to a level comparable to that observed in wt myocytes

**Q.** What about the FS (cTnI-G203S mice; [2]) of the same sequence?
**A.** 48.48%

**Q.** What about the “HW:BW” value (cTnI-G203S mice; [2]) of the same sequence?
**A.** 5.81 mg/g

**Q.** And the IVSD (cTnI-G203S mice; [2])?
**A.** 0.95 mm

**Q.** What about the IVSS (cTnI-G203S mice; [2]) of the same sequence?
**A.** 1.05 mm

**Q.** And the LVDPW (cTnI-G203S mice; [2])?
**A.** 1.26 mm

**Q.** What about the LVEDD (cTnI-G203S mice; [2]) of the same sequence?
**A.** 3.18 mm

**Q.** And the LVESD (cTnI-G203S mice; [2])?
**A.** 1.67 mm

**Q.** What about the LVSPW (cTnI-G203S mice; [2]) of the same sequence?
**A.** 1.43 mm

**Q.** And the FS (cTnI-G203S mice; [3])?
**A.** 38.26^† %

**Q.** And the “HW:BW” value (cTnI-G203S mice; [3])?
**A.** 4.70^† mg/g

**Q.** What about the IVSD (cTnI-G203S mice; [3]) of the same sequence?
**A.** 0.73^† mm

**Q.** What about the IVSS (cTnI-G203S mice; [3]) of the same sequence?
**A.** 0.82^† mm

**Q.** And the LVDPW (cTnI-G203S mice; [3])?
**A.** 1.23 mm

**Q.** And the LVEDD (cTnI-G203S mice; [3])?
**A.** 3.33^† mm

**Q.** And the LVESD (cTnI-G203S mice; [3])?
**A.** 2.06^† mm

**Q.** What about the LVSPW (cTnI-G203S mice; [3]) of the same sequence?
**A.** 1.37 mm

**Q.** And the “reversal of established HCM” value (cTnI-G203S mice; cTnI-G203S mice with established HCM, 10 μM 3×/wk/5 wk)?
**A.** not effective at reversing the cardiomyopathy

**Q.** And the “development of HCM” value (cTnI-G203S mice; precardiomyopathic cTnI-G203S mice, 10 μM 3×/wk/5 wk)?
**A.** prevents the development of HCM
